From patent US8207321B2, “Method of obtaining idolocarbazoles using biosynthetic rebeccamycin genes” (Universidad De Oviedo, priority 2001, dated 2012)

Columns and labels:
[1] = system: S. albus J1074/14E8; test: Paper disc growth inhibition by exogenously added rebeccamycin, strain with cosmid 14E8; assay type: cell-based, Streptomyces albus; conditions: Bennett's agar, 28° C. for 4 days
Protocol: (§1) Therefore, cosmids 14E8 and 17A12, which conferred the ability to produce rebeccamycin, should also confer resistance to rebeccamycin. In order to confirm this point, we studied the effect of exogenously added rebeccamycin on the growth of S. albus J1074/14E8 and control strain S. albus J1074/pKC505. For this purpose, spores of each strain were used to inoculate plates of Bennett's agar (Kieser et al. Practical Streptomyces genetics, The John Innes Foundation, Norwich, UK, 2000) containing 25 μg/ml apramycin. Different amounts of rebeccamycin (dissolved in acetone) were added to paper discs placed on this pre-seeded medium. The plates were left at 4° C. for an hour to allow diffusion of the rebeccamycin solution, and then they were incubated at 28° C. for 4 days.

[2] = system: several tumor cell lines; conditions: cited from earlier work
[3] = system: several tumors implanted in mice; conditions: cited from earlier work
[4] = system: Micrococcus luteus; conditions: cited from earlier work
[5] = system: S. albus J1074/pKC505; test: Paper disc growth inhibition by exogenously added rebeccamycin, control strain; assay type: cell-based, Streptomyces albus; conditions: 100 μg rebeccamycin on paper disc, Bennett's agar, 28° C. for 4 days
Protocol: as §1

[6] = system: Staphylococcus aureus; conditions: cited from earlier work
[7] = system: Streptococcus faecalis; conditions: cited from earlier work
[8] = system: S. albus J1074; test: Growth inhibition of Streptomyces spp.; assay type: cell-based, Streptomyces albus

Structure (SMILES): CO[C@H]1[C@H](O)[C@@H](O)[C@H](n2c3c(Cl)cccc3c3c4c(c5c6cccc(Cl)c6[nH]c5c32)C(=O)NC4=O)O[C@@H]1CO [Rebeccamycin]
- growth of S. albus J1074/14E8 ([1]; 100 μg rebeccamycin on paper disc): fully resistant
- growth of S. albus J1074/14E8 ([1]; 200 μg rebeccamycin on paper disc): fully resistant
- antitumor activity in vitro [2]: antitumor activity
- antitumor activity in vivo [3]: antitumor activity
- antibacterial activity [4]: antibacterial activity
- growth of S. albus J1074/pKC505 [5]: totally inhibited
- antibacterial activity [6]: antibacterial activity
- antibacterial activity [7]: antibacterial activity
- inhibition of growth of Streptomyces spp. including S. albus J1074 [8]: weak inhibition of growth
